{"source": "patent US20180185454A1", "about": "“AGENT FOR PREVENTING ONSET OF IDIOPATHIC OSTEONECROSIS OF FEMORAL HEAD AND/OR SUPPRESSING PROGRESS OF SAME” (ASAHI KASEI PHARMA CORPORATION, priority 2015, published 2018)", "origin": "cited, not measured here", "key": {"ION": {"system": "ION", "conditions": "vs alendronate control; no statistical superiority between the two groups; dosage not disclosed"}, "[1]": {"system": "osteonecrosis of the jawbone", "conditions": "induced by bisphosphonates and denosumab"}}, "note": "Read-outs that look alike come from different tables or passages of the source."}
{"smiles": "CC[C@H](C)[C@H](NC(=O)[C@H](CCC(=O)O)NC(=O)[C@H](CO)NC(=O)[C@@H](NC(=O)[C@@H](N)CO)C(C)C)C(=O)N[C@@H](CCC(N)=O)C(=O)N[C@@H](CC(C)C)C(=O)N[C@@H](CCSC)C(=O)N[C@@H](Cc1cnc[nH]1)C(=O)N[C@@H](CC(N)=O)C(=O)N[C@@H](CC(C)C)C(=O)NCC(=O)N[C@@H](CCCCN)C(=O)N[C@@H](Cc1cnc[nH]1)C(=O)N[C@@H](CC(C)C)C(=O)N[C@@H](CC(N)=O)C(=O)N[C@@H](CO)C(=O)N[C@@H](CCSC)C(=O)N[C@@H](CCC(=O)O)C(=O)N[C@@H](CCCN=C(N)N)C(=O)N[C@H](C(=O)N[C@@H](CCC(=O)O)C(=O)N[C@@H](Cc1c[nH]c2ccccc12)C(=O)N[C@@H](CC(C)C)C(=O)N[C@@H](CCCN=C(N)N)C(=O)N[C@@H](CCCCN)C(=O)N[C@@H](CCCCN)C(=O)N[C@@H](CC(C)C)C(=O)N[C@@H](CCC(N)=O)C(=O)N[C@@H](CC(=O)O)C(=O)N[C@H](C(=O)N[C@@H](Cc1cnc[nH]1)C(=O)N[C@@H](CC(N)=O)C(=O)N[C@@H](Cc1ccccc1)C(=O)O)C(C)C)C(C)C", "note": "[teriparatide]", "values": [{"measurement": "femoral head collapse progress (difference in collapse values before and after administration, simple x-ray frontal views)", "setting": "ION", "value": "tended to suppress femoral head collapse progress in comparison to alendronate"}, {"measurement": "effect on bone formation markers", "setting": "bone formation markers; 20 μg daily formulation", "value": "markedly increases"}, {"measurement": "effect on bone formation markers", "setting": "bone formation markers; 56.5 μg once-a-week formulation", "value": "only slightly"}, {"measurement": "effect against osteonecrosis of the jawbone", "setting": "[1]", "value": "have an effect"}]}
